According to patent publication US4371544A, “Pharmaceutical composition containing 1,1,3,5-substituted biuret compound” (Taiho Pharmaceutical Company Limited, priority 1979, dated 1983):
Where two headings read alike, the source gives them in different places.

Columns and labels:
[1] = tested on: Wistar strain of male rats; assay: Anti-pyretic activity (dry-yeast-induced fever); assay type: in vivo, rat (Wistar); settings: oral (dose not given), up to 4 hours after administration
Protocol: (§1) Next, several tests for determining the pharmacological properties, in that acute toxicity, anti-pyretic activity, analgesic activity and anti-inflammatory activity of the present 1,1,3,5-substituted biuret compounds of the formula (1) were conducted and the test results are shown in Table (2). In the tests, each compounds to be tested was used as a suspension in 0.25% carboxymethylcellulose solution. Methods for testing are explained as follows:
According to the method reported by Tanabe [Folia Pharmacologia Japonica, Vol. 73, pp. 803 (1977)], the Wistar strain of male rats (150-180 g, body weight) were used as test animals. The rats were fasted overnight, and 1 ml/100 g (body weight) of 10% dry-yeast suspension were subcutaneously injected on the back of the rats. Five hours after the injection, the test compound was administered orally, then the body temperature of the rat was measured at time sequences. Anti-pyretic activity of the test compound was determined as the FI (febril index) by integrating pyrogenetic curve up to 4 hours after the administration of the test compound with time, and indicated as inhibitory ratio (%) shown by the following formula, [formula]

[2] = tested on: Wistar strain of male rats; assay: Anti-inflammatory activity (acute carrageenin-induced inflammatory test, hindpaw); assay type: in vivo, rat (Wistar); settings: for inhibition in vivo at 100 mg/kg: Rattus norvegicus, read-out: Anti-inflammatory activity, inflammation inhibitory ratio
Protocol: as §1
According to the method of acute carrageenin-induced inflammatory test [Folia Pharmacologia Japonica, Vol. 56, pp. 575 (1960)], the Wistar strain of male rats (body weight, 150-180 g) were used as test animals. The rats were fasted overnight, 100 mg/kg body weight of the test compound was administered orally, then 1 hour after the administration, 0.1 ml of 1% carrageenin solution, as the inflammation inducing agent, was injected subcutaneously to the hindpaw of the rat and the volume of the hindpaw was measured at time sequences, Anti-inflammatory activity of the test compound was calculated as inflammation inhibitory ratio (%) at 3 hours after the injection of inflammation inducing agent.

ddy strain of male mice [3] = assay: Analgesic activity, acetic acid-induced stretching method; assay type: in vivo, mouse (ddy); settings: for ED50: oral, Δ mark, range in parentheses
Protocol: as §1
According to the method reported by Koster et al., [Fed. Proc., Vol. 18, pp. 412 (1959)], the ddy strain of male mice (body weight, 20-25 g) were used as test animals. The mice were fasted overnight, 100 mg/kg body weight of the test compound was administered orally, then 1 hour after the administration, 0.2 ml of 0.7% acetic acid solution was injected intraperitoneally. The acetic acid-induced stretching symptom of mouse was observed. Analgesic activity of the test compound was calculated as the inhibitory ratio (%). In Table 2, the values in parentheses show the data obtained from the test by using the dosage other than 100 mg/kg body weight. Further, the values indicated with Δ marks show 50% effective dose, ED50 (mg/kg body weight).

ddy strain of male mice [4] = assay: Analgesic activity, Haffner method (morphine threshold dose, clamp); assay type: in vivo, mouse (ddy); settings: for ED50: oral, Δ mark, range in parentheses
Protocol: as §1
According to the modified method reported by Fujimura et. al., [Bulletin of the Institute for Chemical Research, Kyoto University, No. 25, pp. 36 (1951)], the ddy strain of male mice (body weight, 20-25 g) were used as test animals. The mice were fasted overnight, 100 mg/kg body weight of the test compound was administered orally, then 45 minutes after the administration, the threshold amount (1.5-2.5 mg/kg body weight) of morphine hydrochloride was injected subcutaneously. Then 1-hour pain reaction of the mouse caused by a clamp was observed. Analgesic activity of the test compound was calculated as the inhibitory ratio (%). In Table 2, the values in parentheses show the data obtained from the test by using the dosage other than 100 mg/kg body weight. Further, the values indicated with Δ marks show 50% effective dose, ED50 (mg/kg body weight).

ddy strain of male mice [5] = assay: Acute toxicity (oral, mice, 7 days observation); assay type: in vivo
Protocol: as §1
The ddy strain of male mice (body weight, 20-25 g) were used as test animals. The mice were fasted overnight and the compound to be tested was administered orally. […] The lethal dose (mg/kg, body weight) of the test compound was determined in connection with the death number of mice/the number of mice tested. In Table 2, the values indicated with Δ marks are 50% lethal dose, LD50 (mg/kg, body weight).

[6] = 100 mg/kg oral, 3 hours after carrageenin
[7] = 100 mg/kg oral, 1 hour before acetic acid
[8] = 100 mg/kg oral, 45 minutes before morphine hydrochloride
[9] = Mus musculus, po, read-out: Analgesic activity, acetic acid-induced stretching method, inhibitory ratio
[10] = Mus musculus, 200 mg/kg oral, read-out: Analgesic activity, Haffner method, inhibitory ratio

Compound | Anti-pyretic activity, inhibitory ratio (febril index) [1] | Anti-inflammatory activity, inflammation inhibitory ratio ([2]; 100 mg/kg oral, (2 hours)) | ED50 (ddy strain of male mice [4]; Mus musculus) | Anti-inflammatory activity, inflammation inhibitory ratio [2, 6] | Analgesic activity, acetic acid-induced stretching method, inhibitory ratio (ddy strain of male mice [3]; [7]) | Acute toxicity: death number of mice/number of mice tested (ddy strain of male mice [5]; 1000 mg/kg oral) | Analgesic activity, Haffner method, inhibitory ratio (ddy strain of male mice [4]; [8]) | Acute toxicity: death number of mice/number of mice tested (ddy strain of male mice [5]; 2000 mg/kg oral) | also measured
CN(C)C(=O)N(C)C(=O)Nc1ccc(Br)cc1 [Compound No. 16, 1,1,3-Trimethyl-5-(4-bromophenyl)biuret] | 103% | 48% | 74 mg/kg | – | – | – | – | – | ED50 (ddy strain of male mice [3]; Mus musculus): 60 mg/kg
CN(C)C(=O)N(C)C(=O)Nc1ccccc1C(F)(F)F [Compound No. 17, 1,1,3-Trimethyl-5-(2-trifluoromethylphenyl)biuret] | 65% | – | – | 66% | 12.5% | 1/4 | 37.5% | – | –
COc1ccc(NC(=O)N(C)C(=O)N(C)C)cc1 [Compound No. 23, 1,1,3-Trimethyl-5-(4-methoxyphenyl)biuret] | 75% | – | 80 mg/kg | 33% | – | – | – | – | ED50 (ddy strain of male mice [3]; Mus musculus): 39 mg/kg
Cc1ccc(NC(=O)N(C)C(=O)N(C)C)cc1 [Compound No. 28, 1,1,3-Trimethyl-5-(4-methylphenyl)biuret] | 52% | 23% | 80 mg/kg | – | – | – | – | 0/4 | ED50 (ddy strain of male mice [3]; Mus musculus): 33 mg/kg
CN(C)C(=O)N(C(=O)Nc1ccccc1)c1ccccc1 [Compound No. 42, 1,1-dimethyl-3,5-diphenylbiuret] | 14% | – | – | – | – | 0/4 | – | 3/4 | inhibition in vivo at 100 mg/kg [2, 6]: 34%; inhibition in vivo at 200 mg/kg (ddy strain of male mice [3]; [9]): 62.5%; inhibition in vivo at 200 mg/kg (ddy strain of male mice [4]; [10]): 50%
CCCNC(=O)N(C)C(=O)N(C)c1ccccc1 [Compound No. 55, 1,3-Dimethyl-1-phenyl-5-n-propylbiuret] | 80% | – | 90 mg/kg | – | – | 1/4 | – | – | inhibition in vivo at 100 mg/kg [2, 6]: 73%; ED50 (ddy strain of male mice [3]; Mus musculus): 80 mg/kg; Acute toxicity: death number of mice/number of mice tested (ddy strain of male mice [5]; 1500 mg/kg oral): 4/4
CCN(CC)C(=O)N(C)C(=O)Nc1ccccc1 [Compound No. 57, 1,1-diethyl-3-methyl-5-phenylbiuret] | 19% | – | – | – | – | – | – | 1/4 | inhibition in vivo at 100 mg/kg ([2]; po, 3 h): 23%; inhibition in vivo at 100 mg/kg (ddy strain of male mice [3]; [9]): 37.5%; inhibition in vivo at 200 mg/kg (ddy strain of male mice [4]; [10]): 50%
CN(C)C(=O)N(C)C(=O)Nc1c(F)c(F)cc(F)c1F [compound 9, 1,1,3-Trimethyl-5-(2,3,5,6-tetrafluorophenyl)biuret] | 33% | – | – | 24% | 87.5% | 4/4 | 50% | – | Acute toxicity: death number of mice/number of mice tested (ddy strain of male mice [5]; 500 mg/kg oral): 0/4
CN(C)C(=O)N(C)C(=O)Nc1cccc(Cl)c1 [compound 11, 1,1,3-Trimethyl-5-(3-chlorophenyl)biuret] | 43% | 30% | – | – | 62.5% | – | – | – | Analgesic activity, Haffner method, inhibitory ratio (ddy strain of male mice [4]; 200 mg/kg oral): 75%
CN(C)C(=O)N(C)C(=O)Nc1cccc(C(F)(F)F)c1 [compound 18, 1,1,3-Trimethyl-5-(3-trifluoromethylphenyl)biuret] | 62% | 32% | 64 mg/kg | – | 37.5% | 0/4 | – | 4/4 | –
Cc1ccccc1NC(=O)N(C)C(=O)N(C)C [compound 26, 1,1,3-Trimethyl-5-(2-methylphenyl)biuret] | 41% | – | – | 29% | 37.5% | – | 50% | – | –
Cc1cccc(NC(=O)N(C)C(=O)N(C)C)c1 [compound 27, 1,1,3-Trimethyl-5-(3-methylphenyl)biuret] | 31% | – | – | 28% | 75% | – | 37.5% | 2/4 | –
CCN(C(=O)Nc1ccccc1)C(=O)N(C)C [compound 36, 1,1-Dimethyl-3-ethyl-5-phenylbiuret] | 12% | – | – | 23% | 62.5% | 0/4 | – | 3/4 | inhibition in vivo at 100 mg/kg (ddy strain of male mice [4]; Mus musculus, 100 mg/kg oral, 45 minutes before morphine hydrochloride, read-out: Analgesic activity, Haffner method, inhibitory ratio): 62.5%
CCCCN(C(=O)Nc1ccccc1)C(=O)N(C)C [compound 38, 1,1-Dimethyl-3-n-butyl-5-phenylbiuret] | 18% | – | – | – | 37.5% | 0/4 | – | 3/4 | inhibition in vivo at 100 mg/kg [2, 6]: 31%; inhibition in vivo at 200 mg/kg (ddy strain of male mice [4]; [10]): 37.5%
CCCN(C)C(=O)N(C)C(=O)Nc1ccccc1 [compound 46, 1,3-Dimethyl-1-n-propyl-5-phenylbiuret] | 44% | 26% | – | – | – | 1/4 | 37.5% | 4/4 | Analgesic activity, acetic acid-induced stretching method, inhibitory ratio (ddy strain of male mice [3]; 60 mg/kg oral): 75%
